In patent publication US20190292215A1, “COMPOUNDS, COMPOSITIONS, AND METHODS FOR THE TREATMENT OF DISEASE” (Sperovie Biosciences, Inc., priority 2016, published 2019):

Tested on: IFN-β
Test: Semi-quantitative RT-PCR of IFN-β gene expression in THP1-Dual / KO STING cells
Type: cell-based
Conditions: THP1-WT, treated 5 or 22 hrs; Cmd 1 alone (no lipo)
Experimental: RNA samples were prepared using Qiagen RNeasy kit and the expression of IFNβ, IRF7 and housekeeper gene β-actin was determined using semi-quantitative reverse transcription (RT)-PCR (started with equal amounts of RNA). PCR products were subjected to 1% agarose gel electrophoresis.
Lipofectamine 2000 also activates IFN-β gene, but cells were treated with Cmd 1 alone (no lipo). DMSO is the negative control.

Nc1nc2c(ncn2[C@@H]2O[C@@H]3COP(=O)(O)O[C@H]4[C@@H](O)[C@H](n5cnc6c(N)ncnc65)O[C@@H]4COP(=O)(O)O[C@@H]2[C@@H]3O)c(=O)[nH]1 [2′3′-cGAMP]
Time to induce IFN-β gene expression: ≤ 5 h
